How the values were obtained:
[1] = system: COX2; test: Gene expression in rat articular chondrocytes under IL-1β stimulation, COX2; assay type: cell-based; conditions: for COX2 gene expression, percentage of inhibitory effect at the highest non toxic concentration: 24 h
[2] = system: ADAMTS-5; test: Gene expression in rat articular chondrocytes under IL-1β stimulation, ADAMTS-5; assay type: cell-based; conditions: for ADAMTS-5 gene expression, percentage of inhibitory effect at the highest non toxic concentration: 6 h
Experimental: (§1) For gene expression analysis, 10 days after plating, the medium was changed and substituted with DMEM GlutaMAX I 0.4% to synchronize the cells. The cells were then co-treated in DMEM GlutaMAX I 0.4% with different concentrations of the test compounds and […] at a final concentration of 2 ng/ml for 6 h and 24 h. The test compound concentrations used have been chosen on the basis of the toxicity data.
(§2) At the end of the incubation, the supernatant was discarded, the cell were washed with cold PBS1X and scraped with 200 μl of RNA lysis buffer 1X (Nucleic Acid Purification Lysis Solution, Applied Biosystems).
(§3) Total RNA was purified using ABI Prism™ 6100 Nucleic Acid PrepStation (Applied Biosystems) following manufacturer's instructions.
(§4) Total RNA was retrotranscribed using the High-Capacity cDNA Archive Kit (Applied Biosystems-Thermo Fisher Scientific) following manufacturer's instructions.
(§5) The specific probes and primers for RealTime PCR were from Applied Biosystems (Thermo Fisher Scientific) as Assays-on-Demand™, while the probe and primers for the endogenous control 18S was a PDAR (Pre-Developed TaqMan® Assay Reagents—Applied Biosystems-Thermo Fisher Scientific).
(§6) The assays were designed to amplify target cDNA without amplifying genomic DNA.
(§7) Gene expression analysis for IL-1β, IL-6 and ADAMTS-5 were performed at 6 h incubation, while the gene expression analysis for MMP3, MMP13 and COX2 were performed at 24 h incubation.
(§8) For each compound the maximal concentration tested was dependent on the toxicity results obtained on primary rat chondrocytes.
(§9) The data analysis, with the normalisation on the amplified values for the 18S was done following the specific instruction of Applied Biosystems for the relative quantification of gene expression.

[3] = molecular target: VEGFR2 (Homo sapiens (Human), UniProt P35968); test: In vitro VEGFR2 kinase activity assay (Eurofins Cerep); assay type: biochemical; conditions: read-out: VEGFR2 KINASE INHIBITION IC50
Sequence of VEGFR2 (P35968 20-1356): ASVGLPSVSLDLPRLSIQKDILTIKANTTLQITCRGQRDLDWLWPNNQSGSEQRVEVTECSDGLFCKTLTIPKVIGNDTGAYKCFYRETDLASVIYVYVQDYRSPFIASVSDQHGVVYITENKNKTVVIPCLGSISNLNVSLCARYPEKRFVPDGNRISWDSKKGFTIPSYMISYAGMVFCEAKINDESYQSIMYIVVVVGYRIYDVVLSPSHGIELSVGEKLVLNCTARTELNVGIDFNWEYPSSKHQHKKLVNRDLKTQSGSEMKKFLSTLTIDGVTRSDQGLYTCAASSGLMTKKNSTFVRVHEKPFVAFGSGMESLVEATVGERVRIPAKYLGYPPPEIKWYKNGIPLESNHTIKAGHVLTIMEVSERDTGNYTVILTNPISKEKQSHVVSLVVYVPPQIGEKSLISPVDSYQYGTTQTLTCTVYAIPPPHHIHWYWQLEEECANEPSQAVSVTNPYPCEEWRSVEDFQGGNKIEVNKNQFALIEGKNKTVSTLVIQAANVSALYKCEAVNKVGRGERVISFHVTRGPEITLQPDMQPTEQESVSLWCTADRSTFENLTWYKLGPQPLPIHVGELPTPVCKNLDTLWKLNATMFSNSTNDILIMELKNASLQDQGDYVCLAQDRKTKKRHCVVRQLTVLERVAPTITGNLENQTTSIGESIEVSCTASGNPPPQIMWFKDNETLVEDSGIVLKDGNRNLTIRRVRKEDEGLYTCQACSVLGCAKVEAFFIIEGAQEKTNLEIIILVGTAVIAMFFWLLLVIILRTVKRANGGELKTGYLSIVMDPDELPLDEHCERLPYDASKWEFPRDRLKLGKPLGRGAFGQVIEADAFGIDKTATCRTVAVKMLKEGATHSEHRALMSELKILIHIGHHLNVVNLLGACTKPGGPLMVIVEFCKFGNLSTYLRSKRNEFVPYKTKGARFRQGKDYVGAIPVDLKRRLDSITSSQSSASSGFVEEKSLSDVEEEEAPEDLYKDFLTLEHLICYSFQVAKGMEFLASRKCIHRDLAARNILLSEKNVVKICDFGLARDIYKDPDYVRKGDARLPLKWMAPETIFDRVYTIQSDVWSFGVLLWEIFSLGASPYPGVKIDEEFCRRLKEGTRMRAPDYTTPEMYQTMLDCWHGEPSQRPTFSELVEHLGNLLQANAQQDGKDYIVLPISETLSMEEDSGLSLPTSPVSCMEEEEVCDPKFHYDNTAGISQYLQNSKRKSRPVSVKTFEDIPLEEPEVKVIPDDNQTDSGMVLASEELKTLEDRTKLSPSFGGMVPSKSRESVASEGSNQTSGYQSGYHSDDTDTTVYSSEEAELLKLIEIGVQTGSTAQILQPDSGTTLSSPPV
In short: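 Contract biochemical kinase assay on human VEGFR2 with inhibitors at 10^−8 to 10^−5 M final (some re-tested from 10^−9 M). Activity expressed as percent of no-compound control; IC50 by non-linear regression of mean replicate inhibition curves.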

[4] = system: MMP13; test: Gene expression in rat articular chondrocytes under IL-1β stimulation, MMP13; assay type: cell-based; conditions: for IC50: Rattus norvegicus, Chondrocyte, 24 h incubation; for MMP13 gene expression, percentage of inhibitory effect at the highest non toxic concentration: 24 h
Experimental: as §1, §2, §3, §4, §5, §6, §7, §8, §9

[5] = system: IL-6; test: Gene expression in rat articular chondrocytes under IL-1β stimulation, IL-6; assay type: cell-based; conditions: for IL-6 gene expression, percentage of inhibitory effect at the highest non toxic concentration: 6 h
Experimental: as §1, §2, §3, §4, §5, §6, §7, §8, §9

[6] = system: bovine nasal septum cartilage; test: Inhibition of cartilage degradation (GAG release) induced by IL-1α in a bovine in vitro model; assay type: cell-based; parameters: key to Bovine cartilage degradation induced by IL-1α, no effect: ne: no effect
Experimental: Nasal septum cartilage was collected from an eight months-old male bovine in a local slaughterhouse.
Tissue was sprayed with ethanol 70% and immediately put in sterile PBS with Antibiotic-Antimycotic stabilized solution (PBS-AASS). It was cut in order to obtain small punches (diameter 2 mm, 1 mm-thick). washed with sterile PBS-AASS, the slices were transferred in a 96X well plate (one piece per well) in DMEM 10%+AASS. 48 h later the cartilage was stimulated in white DMEM+0.1% BSA+AASS with IL-1α […] in the absence or presence of the studied compounds.
The compounds concentration used in this analysis was chosen depending on the toxicity results obtained in rat primary chondrocytes at 48 h of incubation.
After 48 h stimulation, the culture medium was collected and stored at −80° C. The cartilage punches were digested with papain at 65° C. for 2 h in phosphate buffer (0.05M pH 6.5 with 2 mM N-acetil-L-cisteine and 2 mM EDTA).
The glycosaminoglycan (GAG) determination was done by a colorimetric assay with 1,9 dimethyl methylene blue (DMB).
Digested cartilage samples were diluted in PBS-BSA 1%. To 100 μl of diluted samples or standard we added 100 μl DMB 2X. After 5-20 min incubation the samples were read at 590 nm (Titertek Multiscan Plus).
The cartilage degradation induced by IL-1α was expressed as: GAG (medium)/total GAG (medium+cartilage)×100

[7] = system: IL-1β; test: Gene expression in rat articular chondrocytes under IL-1β stimulation, IL-1β; assay type: cell-based; conditions: for IL-1β gene expression, percentage of inhibitory effect at the highest non toxic concentration: 6 h; for IC50: Rattus norvegicus, Chondrocyte, 6 h incubation
Experimental: as §1, §2, §3, §4, §5, §6, §7, §8, §9

[8] = system: NF-kB; test: Gene reporter (GR) assay, NF-kB activation after TNFα in JB6 Cl 41-5a (P+) cells; assay type: cell-based, murine; conditions: Mus musculus, JB6 Cl 41-5a, TNFα 2 ng/ml, non toxic concentrations; read-out: Gene reporter (GR) inhibition IC50
In short: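 Murine JB6 Cl 41-5a (P+) cells stably carrying an NF-kB-RE luc2P reporter were pre-treated with compound for 1 h, then stimulated with 2 ng/ml TNFα for 4 h. Luciferase read-out with a paired viability read; quadruplicates.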

[9] = molecular target: Fyn (Homo sapiens (Human), UniProt P06241); test: Z′-LYTE in vitro Fyn kinase activity assay; assay type: biochemical; conditions: ATP 50 μM; read-out: FYN KINASE INHIBITION IC50
Sequence of Fyn (P06241 whole entry): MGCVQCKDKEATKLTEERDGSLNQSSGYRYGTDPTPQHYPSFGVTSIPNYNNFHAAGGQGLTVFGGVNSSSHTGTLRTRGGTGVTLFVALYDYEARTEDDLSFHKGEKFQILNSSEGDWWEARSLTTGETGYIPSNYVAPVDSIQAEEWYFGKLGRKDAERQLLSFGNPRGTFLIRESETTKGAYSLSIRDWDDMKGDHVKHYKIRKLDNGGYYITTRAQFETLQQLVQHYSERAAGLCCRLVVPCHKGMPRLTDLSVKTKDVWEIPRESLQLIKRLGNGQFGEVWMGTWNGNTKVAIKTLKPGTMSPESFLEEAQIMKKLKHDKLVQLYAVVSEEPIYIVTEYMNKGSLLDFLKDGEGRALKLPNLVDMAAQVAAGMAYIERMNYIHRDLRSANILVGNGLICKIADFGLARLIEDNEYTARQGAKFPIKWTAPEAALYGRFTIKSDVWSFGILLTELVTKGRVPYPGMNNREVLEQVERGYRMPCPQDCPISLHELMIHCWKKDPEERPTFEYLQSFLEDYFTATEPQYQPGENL
In short: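 Z′-LYTE FRET format with full-length active Fyn in 50 mM Hepes pH 7.5, 10 mM MgCl2, 1 mM EGTA, 0.01% Brij-35, 1% DMSO final; 60 minutes at 25° C. Percent phosphorylation from 0% and 100% phosphorylation controls; IC50 by non-linear curve fitting of percent inhibition.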

[10] = system: rat primary articular chondrocytes; test: Toxicity analysis (MTT) in rat primary chondrocytes; conditions: for First toxic concentration at 24 h: rat primary chondrocytes
[11] = system: MMP3; test: Gene expression in rat articular chondrocytes under IL-1β stimulation, MMP3; assay type: cell-based; parameters: key to MMP3 gene expression, no effect: ne: no effect; conditions: for IC50: Rattus norvegicus, Chondrocyte, 24 h incubation
Experimental: as §1, §2, §3, §4, §5, §6, §7, §8, §9

[12] = Bos taurus, read-out: Bovine cartilage degradation induced by IL-1α, % inhibitory effect at max concentration
[13] = Rattus norvegicus, Chondrocyte, 6 h incubation

| Compound | IC50 [3] | IC50 [9] | IC50 [11] | COX2 gene expression, percentage of inhibitory effect at the highest non toxic concentration ([1]; 10 μM) | ADAMTS-5 gene expression, percentage of inhibitory effect at the highest non toxic concentration ([2]; 10 μM) | IC50 [8] | First toxic concentration at 48 h in rat primary chondrocytes [10] | First toxic concentration at 24 h [10] | IL-6 gene expression, percentage of inhibitory effect at the highest non toxic concentration ([5]; 3 μM) | inhibition at 3 µM [6, 12] | other results |
| --- | --- | --- | --- | --- | --- | --- | --- | --- | --- | --- | --- |
| CC(C)(C#N)c1cc(C(=O)Nc2ccc(F)c(CCc3cc(Nc4cnccn4)[nH]n3)c2)ccn1 [Compound 11, 2-(2-cyanopropan-2-yl)-N-(4-fluoro-3-(2-(5-(pyrazin-2-ylamino)-1H-pyrazol-3-yl)ethyl)phenyl)isonicotinamide] | < 10 nM | 21 nM | 2200 nM | 10 μM 100% | 10 μM 100% | 785 nM | >10 µM | >10 µM | – | – | IC50 [4]: 2400 nM; IL-6 gene expression, percentage of inhibitory effect at the highest non toxic concentration ([5]; 10 μM): 10 μM 100%; inhibition at 10 µM [6, 12]: 89%; IL-1β gene expression, percentage of inhibitory effect at the highest non toxic concentration ([7]; 10 μM): 10 μM 100% |
| CS(=O)(=O)c1cccc(C(=O)Nc2ccc(F)c(CCc3cc(Nc4cnccn4)[nH]n3)c2)c1 [Compound 12, N-(4-fluoro-3-(2-(5-(pyrazin-2-ylamino)-1H-pyrazol-3-yl)ethyl)phenyl)-3-(methylsulfonyl)benzamide] | < 10 nM | 24 nM | – | 10 μM 63% | 10 μM 57% | 4510 nM | 10 µM | >10 µM | – | – | MMP13 gene expression, percentage of inhibitory effect at the highest non toxic concentration ([4]; 10 μM): 10 μM 34%; IC50 [5, 13]: 2600 nM; Bovine cartilage degradation induced by IL-1α, no effect [6]: ne; IC50 [7]: 3900 nM; MMP3 gene expression, no effect ([11]; 24 h): ne |
| Cc1cnc(Nc2cc(CCc3cc(NC(=O)c4cccc(C(F)(F)F)c4)ccc3F)n[nH]2)c(C)n1 [Compound 14, N-(3-(2-(5-((3,5-dimethylpyrazin-2-yl)amino)-1H-pyrazol-3-yl)ethyl)-4-fluorophenyl)-3-(trifluoromethyl)benzamide] | 10 nM | 31 nM | – | – | – | 487 nM | 10 µM | 10 µM | 3 μM 100% | 97% | COX2 gene expression, percentage of inhibitory effect at the highest non toxic concentration ([1]; 3 μM): 3 μM 100%; ADAMTS-5 gene expression, percentage of inhibitory effect at the highest non toxic concentration ([2]; 3 μM): 3 μM 99%; MMP13 gene expression, percentage of inhibitory effect at the highest non toxic concentration ([4]; 3 μM): 3 μM 99%; IL-1β gene expression, percentage of inhibitory effect at the highest non toxic concentration ([7]; 3 μM): 3 μM 99%; MMP3 gene expression, percentage of inhibitory effect at the highest non toxic concentration ([11]; 3 μM, 24 h): 3 μM 95% |
| Cc1ccc(NC(=O)c2cccc(C(F)F)c2)cc1CCc1cc(Nc2cnccn2)[nH]n1 [Compound 33, 3-(difluoromethyl)-N-(4-methyl-3-(2-(5-(pyrazin-2-ylamino)-1H-pyrazol-3-yl)ethyl)phenyl) benzamide] | < 10 nM | 16 nM | – | – | – | 363 nM | 10 µM | 10 µM | 3 μM 100% | 91% | COX2 gene expression, percentage of inhibitory effect at the highest non toxic concentration ([1]; 3 μM): 3 μM 89%; ADAMTS-5 gene expression, percentage of inhibitory effect at the highest non toxic concentration ([2]; 3 μM): 3 μM 90%; MMP13 gene expression, percentage of inhibitory effect at the highest non toxic concentration ([4]; 3 μM): 3 μM 94%; IL-1β gene expression, percentage of inhibitory effect at the highest non toxic concentration ([7]; 3 μM): 3 μM 93%; MMP3 gene expression, percentage of inhibitory effect at the highest non toxic concentration ([11]; 3 μM, 24 h): 3 μM 81% |

Further lines, with some results ahead:

| IC50 [3] | IC50 [9] | IC50 [11] | Compound | COX2 gene expression, percentage of inhibitory effect at the highest non toxic concentration ([1]; 10 μM) | ADAMTS-5 gene expression, percentage of inhibitory effect at the highest non toxic concentration ([2]; 10 μM) | IC50 [8] | First toxic concentration at 48 h in rat primary chondrocytes [10] | First toxic concentration at 24 h [10] | IL-6 gene expression, percentage of inhibitory effect at the highest non toxic concentration ([5]; 3 μM) | inhibition at 3 µM [6, 12] | other results |
| --- | --- | --- | --- | --- | --- | --- | --- | --- | --- | --- | --- |
| < 10 nM | 26 nM | 300 nM | O=C(Nc1ccc(F)c(CCc2cc(Nc3cnccn3)[nH]n2)c1)c1cccc(C(F)(F)F)c1 [Compound 13, N-(4-fluoro-3-(2-(5-(pyrazin-2-ylamino)-1H-pyrazol-3-yl)ethyl)phenyl)-3-(trifluoromethyl) benzamide] | – | – | 308 nM | 3 µM | 3 µM | – | – | COX2 gene expression, percentage of inhibitory effect at the highest non toxic concentration ([1]; 1 μM): 1 μM 96%; ADAMTS-5 gene expression, percentage of inhibitory effect at the highest non toxic concentration ([2]; 1 μM): 1 μM 88%; MMP13 gene expression, percentage of inhibitory effect at the highest non toxic concentration ([4]; 1 μM): 1 μM 94%; IL-6 gene expression, percentage of inhibitory effect at the highest non toxic concentration ([5]; 1 μM): 1 μM 100%; inhibition at 1 µM ([6]; Bos taurus, 1 μM, read-out: Bovine cartilage degradation induced by IL-1α, % inhibitory effect at max concentration): 97%; Inhibitory effect on the GAG release ([6]; at max concentration): 95-100%; IL-1β gene expression, percentage of inhibitory effect at the highest non toxic concentration ([7]; 1 μM): 1 μM 96% |
| < 10 nM | 8 nM | – | CCN1Cc2cnc(Nc3cc(CCc4cc(NC(=O)c5cccc(C(F)(F)F)c5)ccc4C)n[nH]3)cc2C1 [Compound 17, N-(3-(2-(5-((2-ethyl-2,3-dihydro-1H-pyrrolo[3,4-c]pyridin-6-yl)amino)-1H-pyrazol-3-yl)ethyl)-4-methylphenyl) -3-(trifluoromethyl)benzamide] | 10 μM 96% | 10 μM 62% | 352 nM | >10 µM | >10 µM | – | – | MMP13 gene expression, percentage of inhibitory effect at the highest non toxic concentration ([4]; 10 μM): 10 μM 100%; IL-6 gene expression, percentage of inhibitory effect at the highest non toxic concentration ([5]; 10 μM): 10 μM 100%; inhibition at 10 µM [6, 12]: 100%; IL-1β gene expression, percentage of inhibitory effect at the highest non toxic concentration ([7]; 10 μM): 10 μM 99%; MMP3 gene expression, percentage of inhibitory effect at the highest non toxic concentration ([11]; 10 μM, 24 h): 10 μM 92% |
| 110 nM | 69 nM | 600 nM | Cc1ccc(NC(=O)c2cccc(C(F)(F)F)c2)cc1CCc1cc(NC(=O)c2ccc(F)cc2)[nH]n1 [Compound 19, N-(3-(2-(3-(4-fluorobenzamido)-1H-pyrazol-5-yl)ethyl)-4-methylphenyl)-3-(trifluoromethyl)benzamide] | – | – | 883 nM | 10 µM | 10 µM | 3 μM 99% | 83% | IC50 ([1]; Rattus norvegicus, Chondrocyte, 24 h incubation): 400 nM; IC50 [2, 13]: 100 nM; IC50 [4]: 500 nM; IC50 [7]: 100 nM |

— patent US12509446B2, “FYN and VEGFR2 kinase inhibitors” (ROTTAPHARM BIOTECH S.R.L., priority 2019, dated 2025)
